The text below walks through data of patent US8703431B2, “Polypeptides for the in vitro assessment of the sensitising potential of a test compound” (Immunosearch, priority 2009, dated 2014).

In data set [1] the test system is polypeptide of sequence SEQ ID NO: 19 (Ac-RFAACAA-NH2). Briefly: HPLC test of % fixing of test compound on polypeptide (positive control peptide). The note with it: 5 mM test compound; for fixing, SEQ ID NO: 19, pH 8.3 / fixing, SEQ ID NO: 19, pH 8.8 / fixing, SEQ ID NO: 19, pH 9.2: Example 3; for fixing, SEQ ID NO: 19, pH 8.3: twice 0.5 mM polypeptide (SEQ ID NO: 19 and 8), TRIS-HCl pH 8.3; for fixing, SEQ ID NO: 19, pH 8.3 / fixing, SEQ ID NO: 19, pH 8.8: 'Fixing' = fixing exists but not quantifiable; for fixing, SEQ ID NO: 19, pH 8.8: TRIS-HCl pH 8.8; for % fixing (mean), SEQ ID NO: 19: Example 4; for fixing, SEQ ID NO: 19, pH 9.2: TRIS-HCl pH 9.2. The class given is binding. As to the method:
(§1) A test with 0.5 mM of polypeptide and 5 mM of test compound is carried out under the following conditions:
(§2) The reaction mixture containing 40 μl of peptide solution (1.25 mM stock solution in a 100 mM ammonium acetate buffer at pH 10.2 and the polypeptide of sequence SEQ ID NO: 18, SEQ ID NO: 7 in which X1, X2, X3 and X4 each represents a lysine, or SEQ ID NO: 8 in which X1, X2, X3 and X4 each represents a lysine), 35 μl of 100 mM ammonium acetate buffer solution, at pH 10.2, 20 μl of acetonitrile and 5 μl of solution to be tested (100 mM stock solution in acetonitrile or a 50% acetonitrile 50% DMSO mixture) was prepared and then stirred.
(§3) The reaction mixture was then put to incubate at 30° C. for 4 hours and in darkness.
(§4) HPLC analysis was then carried out at a gradient of 10% to 45% of buffer B (acetonitrile+0.08% of trifluoroacetic acid (TFA)) in 20 minutes (buffer A: water+0.1% of TFA), rate 1 ml/minute. Detection was carried out under UV at 230 nm.
(§5) The control without allergen consisted of 40 μl of buffer solution.
A test with 0.5 mM of polypeptide of sequence […] and 5 mM of test compound was carried in accordance with the same protocol as that described for example 1.
The sequence SEQ ID NO: 19, which is not a lipocalin derivative, was used as a positive control. This sequence corresponds to the following sequence:
The buffer used was 100 mM TRIS-HCl at pH 8.3.
(§6) The buffer used was 100 Mm TRIS-HCl at pH 8.3, pH 9.2 and pH 8.8.
(§7) The buffer used was TRIS-HCl at 100 mM.
(§8) A test with twice 0.5 mM of polypeptides of sequences SEQ ID NO: 19 and SEQ ID NO: 1 wherein X1, X2, X3 and X4 each represent a lysine, and having an NH2 group at its C-Terminal end, and SEQ ID NO: 8 wherein X1, X2, X3 and X4 each represent a lysine, and 5 mM of test compound, was carried out in accordance with the same protocol as that described for example 1.

The target in data set [2] is T1, polypeptide SEQ ID NO: 8 in which X1, X2, X3 and X4 each represents a lysine (Mus musculus, UniProt O09114).
T1 construct: made in house; host or cells: chemical peptide synthesis (Fmoc)
T1 sequence (O09114 148-173 limits assumed): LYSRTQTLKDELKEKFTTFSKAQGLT
Nature of the data set: HPLC test of % fixing of test compound on polypeptide. The class given is binding. The following applies: 5 mM test compound; for fixing, SEQ ID NO: 8 (X1-X4 lysine), pH 8.3 / fixing, SEQ ID NO: 8 (X1-X4 lysine), pH 8.8 / fixing, SEQ ID NO: 8 (X1-X4 lysine), pH 9.2: Example 3; for fixing, SEQ ID NO: 8 (X1-X4 lysine), pH 8.3: twice 0.5 mM polypeptide (SEQ ID NO: 19 and 8), TRIS-HCl pH 8.3; for fixing, SEQ ID NO: 8 (X1-X4 lysine), pH 8.3 / fixing, SEQ ID NO: 8 (X1-X4 lysine), pH 9.2: 'Fixing' = fixing exists but not quantifiable; for fixing, SEQ ID NO: 8 (X1-X4 lysine), pH 8.8: TRIS-HCl pH 8.8; for fixing, SEQ ID NO: 8 (X1-X4 lysine), pH 9.2: TRIS-HCl pH 9.2; for % fixing (mean), SEQ ID NO: 8 (X1-X4 lysine): Example 4. As to the method:
as §1, §2, §3, §4, §5, §6, §7, §8

For data set [3] the following is noted: skin sensitisation, as stated in the description; cited from earlier work.
Data set [4] has as its system polypeptide SEQ ID NO: 1 wherein X1, X2, X3 and X4 each represent a lysine, having an NH2 group at its C-Terminal end. Nature of the data set: HPLC test of % fixing of test compound on polypeptide. The note with it: for % fixing, SEQ ID NO: 1 (X1-X4 lysine, NH2 group at C-Terminal end): Example 5, 5 mM test compound, TRIS-HCl 100 mM, signal disturbed, preventing measurements greater than 82-83% fixing, these values represent a minimum. The class given is binding. As to the method: as §1, §2, §3, §4, §5, §8, §7
It should be noted, in the case of the tests of SEQ ID NO: 1, the signal was disturbed, preventing measurements greater than 82-83% fixing. These values consequently represent a minimum.
A coelution of the polypeptide with the allergens cinnamic aldehyde and 1,2-Benzisothiazolin-3-one was observed.

Data set [5] concerns polypeptide of sequence SEQ ID NO: 18 (Ac-RFAAKAA-NH2). Nature of the data set: HPLC test of % fixing of test compound on polypeptide (positive control peptide). The class given is binding. The following applies: 0.5 mM polypeptide, 5 mM test compound, 100 mM ammonium acetate buffer pH 10.2, 30° C., 4 hours, darkness. On the procedure: as §1, §2
The sequence SEQ ID NO: 18, which is not a lipocalin derivative, was used as a positive control. This sequence corresponds to the following sequence:
as §3, §4, §5

For data set [6], the target named is T2, polypeptide SEQ ID NO: 7 in which X1, X2, X3 and X4 each represents a lysine (Mus musculus, UniProt P11672, DEL176-176).
T2 construct: made in house; host or cells: chemical peptide synthesis (Fmoc)
T2 sequence (P11672 with tags, fused parts or gaps DEL176-176 limits assumed): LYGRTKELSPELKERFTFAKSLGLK
Briefly: HPLC test of % fixing of test compound on polypeptide. The class given is binding. The following applies: 0.5 mM polypeptide, 5 mM test compound, 100 mM ammonium acetate buffer pH 10.2, 30° C., 4 hours, darkness. On the procedure: as §1, §2, §3, §4, §5

The mark [7] stands for this setting: twice 0.5 mM polypeptide, TRIS-HCl 100 mM.
Where [8] appears, read: Example 5, twice 0.5 mM polypeptide, TRIS-HCl 100 mM.
The mark [9] stands for this setting: twice 0.5 mM polypeptide, TRIS-HCl 100 mM, 'Fixing' = not quantifiable.
[10] abbreviates: Example 5, twice 0.5 mM polypeptide, TRIS-HCl 100 mM, 'Fixing' = not quantifiable.
The mark [11] stands for this setting: Example 2, 0.5 mM polypeptide, 100 mM TRIS-HCl pH 8.3.

On to `O=c1[nH]sc2ccccc12` [Ben, 1,2-benzisothiazolin-3-one], for which the “fixing, SEQ ID NO: 19, pH 8.3” value in data set [1] is recorded as “Fixing”. For the same compound, the “fixing, SEQ ID NO: 19, pH 8.8” value in data set [1] (twice 0.5 mM polypeptide) is on record as “Fixing”. In addition, in data set [1] (setting [7]), the “% fixing (mean), SEQ ID NO: 19” value was determined as 90%. The “% fixing, SEQ ID NO: 19” value in data set [1] (setting [8]) amounted to 90%. Besides, the “fixing, SEQ ID NO: 8 (X1-X4 lysine), pH 8.3” value in data set [2] is given as 100%. Moreover, in data set [2] (twice 0.5 mM polypeptide), the “fixing, SEQ ID NO: 8 (X1-X4 lysine), pH 8.8” value is on record as 100% and the “fixing, SEQ ID NO: 8 (X1-X4 lysine), pH 9.2” value was 0%. The “sensitising capacity (sensitiser class)” value in data set [3] is “moderate sensitisers”.

As for `CC(O)C(=O)O` (centres unmarked) [LA, lactic acid], in data set [1], the “fixing, SEQ ID NO: 19, pH 8.3” value turned out to be 0%. Also, in data set [1] (twice 0.5 mM polypeptide), the “fixing, SEQ ID NO: 19, pH 8.8” value was found to be 0% and the “fixing, SEQ ID NO: 19, pH 9.2” value is on record as 0%. The “% fixing (mean), SEQ ID NO: 19” value in data set [1] (setting [7]) worked out at 0%. Moreover, the “% fixing, SEQ ID NO: 19” value in data set [1] (setting [8]) came to 0%. In data set [2], the “fixing, SEQ ID NO: 8 (X1-X4 lysine), pH 8.3” value worked out at 0%. Also, in data set [2] (twice 0.5 mM polypeptide), the “fixing, SEQ ID NO: 8 (X1-X4 lysine), pH 8.8” value is 0% and the “fixing, SEQ ID NO: 8 (X1-X4 lysine), pH 9.2” value is listed as 0%. The “% fixing (mean), SEQ ID NO: 8 (X1-X4 lysine)” value in data set [2] (setting [9]) turned out to be 0%. Further, the “% fixing, SEQ ID NO: 8 (X1-X4 lysine)” value in data set [2] (setting [10]) is listed as 0%. Also, the “sensitising capacity (sensitiser class)” value in data set [3] is listed as “non-sensitising”. In addition, the “% fixing, SEQ ID NO: 1 (X1-X4 lysine, NH2 group at C-Terminal end)” value in data set [4] was determined as 1%.

Regarding `CC(C)=CCCC(C)=CC=O` [Cal, citral], the “% fixing, SEQ ID NO: 19” value in data set [1] (setting [11]) came out at 70%; in data set [1] (setting [8]) it was 46%. Further, in data set [1] (setting [7]), the “% fixing (mean), SEQ ID NO: 19” value turned out to be 46%. Also, in data set [2] (setting [9]), the “% fixing (mean), SEQ ID NO: 8 (X1-X4 lysine)” value was 70%. Also, the “% fixing, SEQ ID NO: 8 (X1-X4 lysine)” value in data set [2] (setting [10]) was 70%. Moreover, the “sensitising capacity (sensitiser class)” value in data set [3] is “moderate sensitisers”. The “% fixing, SEQ ID NO: 1 (X1-X4 lysine, NH2 group at C-Terminal end)” value in data set [4] is 64%.

With `O=c1c(-c2ccccc2)c1-c1ccccc1` [DPCP, diphenylcyclopropenone], the “% fixing, SEQ ID NO: 19” value in data set [1] (setting [11]) is listed as 96%; in data set [1] (setting [8]), 100%. Also, in data set [1] (setting [7]), the “% fixing (mean), SEQ ID NO: 19” value amounted to 100%. Also, the “sensitising capacity (sensitiser class)” value in data set [3] is “extremely strong sensitiser”. Further, the “% fixing, SEQ ID NO: 1 (X1-X4 lysine, NH2 group at C-Terminal end)” value in data set [4] came out at 83.5%.

For the compound `O=CCc1ccccc1` [PA, phenylacetaldehyde], the “fixing, SEQ ID NO: 19, pH 8.3” value in data set [1] is listed as 100%. The “fixing, SEQ ID NO: 19, pH 9.2” value in data set [1] (twice 0.5 mM polypeptide) is 86%. For the same compound, the “% fixing (mean), SEQ ID NO: 19” value in data set [1] (setting [7]) is reported as 81%. Moreover, the “% fixing, SEQ ID NO: 19” value in data set [1] (setting [8]) was 81%. Further, the “fixing, SEQ ID NO: 8 (X1-X4 lysine), pH 8.3” value in data set [2] is “Fixing”. Besides, in data set [2] (twice 0.5 mM polypeptide), the “fixing, SEQ ID NO: 8 (X1-X4 lysine), pH 8.8” value was 0% and the “fixing, SEQ ID NO: 8 (X1-X4 lysine), pH 9.2” value amounted to 21%. Besides, the “% fixing (mean), SEQ ID NO: 8 (X1-X4 lysine)” value in data set [2] (setting [9]) is given as “Fixing”. Besides, in data set [2] (setting [10]), the “% fixing, SEQ ID NO: 8 (X1-X4 lysine)” value is on record as “Fixing”. Further, in data set [3], the “sensitising capacity (sensitiser class)” value is “moderate sensitisers”. Further, the “% fixing, SEQ ID NO: 1 (X1-X4 lysine, NH2 group at C-Terminal end)” value in data set [4] came to 54%. Besides, in data set [4] (Example 5 conditions, explains the medium fixing results), the “precipitation of test compound during measurements with SEQ ID NO: 1” value is “very greatly precipitated”.

As to `O=C/C=C/c1ccccc1` [CA, cinnamic aldehyde], in data set [5], the “% fixing, SEQ ID NO: 18” value was 17%. Moreover, the “% fixing, SEQ ID NO: 8 (X1-X4 lysine)” value in data set [2] (0.5 mM polypeptide, 100 mM ammonium acetate buffer pH 10.2, 30° C., 4 hours, darkness) is recorded as 30%; in data set [2] (setting [10]) it was 30%. Further, the “% fixing (mean), SEQ ID NO: 8 (X1-X4 lysine)” value in data set [2] (setting [9]) is given as 30%. In addition, in data set [6], the “% fixing, SEQ ID NO: 7 (X1-X4 lysine)” value was 100%. The “sensitising capacity (sensitiser class)” value in data set [3] is given as “moderate sensitisers”.
